The results in this text go back to patent publication US8569011B2, “Fluorescent derivatives of polyamines, method for preparing same and applications thereof as diagnosis tools in the treatment of cancerous tumors” (Pierre Fabre Medicament, priority 2007, dated 2013).

Assay [1] has as its system U-937. In words: Cytotoxicity, residual ATP (ATPlite kit), 72 hours, U-937. Format: cell-based. The settings on record: Homo sapiens, U-937 leukemic line, 72 hours incubation. The protocol:
(§1) An anticancer compound is used, a derivative of epipodophyllotoxin, whose intracellular penetration is dependent on the polyamine transporter, such as the compound described in example 27 of patent application WO 2005/100363 and, as reference compound, etoposide which is a non-vectored epipodophyllotoxin. These two compounds have the same mechanism of action on cancer cells: they are both inhibitors of topoisomerase 2.
(§2) A panel of leukemic lines was assayed to ascertain probe incorporation, here the one described in example 1, regarding the sensitivity to a vectored agent such as the compound in example 27 of patent application WO 2005/100363 and by comparison with non-vectored etoposide. After an incubation time of 72 hours with the compound of example 27 in patent application WO 2005/100363 or with etoposide, cytotoxicity was evaluated using the ATPlite kit. Cells from the same line were also incubated in the presence of the probe described in example 1, and were analyzed by flow cytometry. Fluorescence intensity measured at 525 nm was followed from 0 to 1 hour 30 minutes and the slope of intensity variation was calculated.

In assay [2] the test system is BL-41. Put plainly: Cytotoxicity, residual ATP (ATPlite kit), 72 hours, BL-41. Format: cell-based. The settings on record: Homo sapiens, BL-41 leukemic line, 72 hours incubation. The protocol: as §1, §2
(In general: ATP-based viability assays read luminescence as a measure of living cells.)

The test system of assay [3] is KG-1. In words: Cytotoxicity, residual ATP (ATPlite kit), 72 hours, KG-1. Format: cell-based. The settings on record: Homo sapiens, KG-1 leukemic line, 72 hours incubation. How it is done:
as §1, §2

The test system of assay [4] is CEM. Put plainly: Cytotoxicity, residual ATP (ATPlite kit), 72 hours, CEM. Format: cell-based. The settings on record: Homo sapiens, CCRF-CEM, CEM leukemic line, 72 hours incubation. How it is done: as §1, §2
The subject of assay [5] is BLUE-1. In words: Cytotoxicity, residual ATP (ATPlite kit), 72 hours, BLUE-1. Format: cell-based. The settings on record: BLUE-1 leukemic line, 72 hours incubation. The protocol:
as §1, §2

Assay [6] concerns BLUE-1. Put plainly: Fluorescent probe incorporation (polyamine transport activity) by flow cytometry, BLUE-1. Format: cell-based. Particulars: (cell intensity with probe presence) - (cell intensity without probe presence), emission 525 nm. The protocol:
(§3) Cells taken from biopsies are mechanically separated with or without the presence of trypsin depending on the constitution of the tissue under consideration. The haematopoietic cells are separated and isolated following conventional preparation methods for blood cells. Once isolated after a fairly short time to ensure the viability of the cells being examined, the cells are placed in the presence of the probe such as synthesized in examples 1 to 3 for example, and left to incubate in the recommended culture medium for the tissue under consideration in the presence of aminoguanidine. Aminoguanidine is used to prevent in vitro denaturating of the polyamines. […] An incubation time of one to four hours is sufficient and allows detection of fluorescence by immunochemistry or flow cytometry, by choosing excitation and emission wavelengths compatible with the substituent of the fluorescent probe. This analysis is conducted by flow cytometry or histochemistry following standard methodology in the study described below, by exciting the probe obtained in example 1, N-(3-aminopropyl)-N′-{3-[methyl-(7-nitrobenzo[1,2,5]oxadiazol-4-yl)-amino]-propyl}-butane-1,4-diamine with a 488 nm source and measuring fluorescence emission at 525 nm. […]
(§4) For all the assayed lines, the capacity to incorporate the fluorescent probe, characterized by the fluorescence measured by flow cytometry, was also measured.
On the technique in general: A flow cytometer gives signals particle by particle.

Assay [7] has as its system CEM. In words: Fluorescent probe incorporation (polyamine transport activity) by flow cytometry, CEM. Particulars: (cell intensity with probe presence) - (cell intensity without probe presence), emission 525 nm. Format: cell-based. The protocol:
as §3, §4

Assay [8] deals with U-937. Put plainly: Fluorescent probe incorporation (polyamine transport activity) by flow cytometry, U-937. Particulars: (cell intensity with probe presence) - (cell intensity without probe presence), emission 525 nm. Format: cell-based. How it is done:
as §3, §4

For the next assay, the system named is A549 cells. Put plainly: Selectivity of the probes vis-a-vis tumor cells: probe incorporation in A549 cells compared with MRC-5 cells. Format: cell-based, human. The protocol: as §3
For assay [9], the system named is BL-41. Put plainly: Fluorescent probe incorporation (polyamine transport activity) by flow cytometry, BL-41. The settings on record: (cell intensity with probe presence) - (cell intensity without probe presence), emission 525 nm. Format: cell-based. How it is done: as §3, §4
Assay [10] relates to KG-1. Put plainly: Fluorescent probe incorporation (polyamine transport activity) by flow cytometry, KG-1. Format: cell-based. The settings on record: (cell intensity with probe presence) - (cell intensity without probe presence), emission 525 nm. How it is done: as §3, §4

On to `COc1cc([C@@H]2c3cc4c(cc3[C@@H](O[C@@H]3O[C@@H]5CO[C@@H](C)O[C@H]5[C@H](O)[C@H]3O)[C@H]3COC(=O)[C@H]23)OCO4)cc(OC)c1O` [Etoposide, etoposide], for which the 50% inhibitory concentration (IC50) (as a rule, the concentration that inhibits the measured activity by half) in the assay on U-937 [1] came out at 400 nM; in the assay on BL-41 [2] it was 400 nM; with KG-1 [3] it was 5000 nM; in the assay on CEM [4], 60 nM; in the assay with BLUE-1 [5], 1000 nM.
As to `CN(CCCNCCCCNCCCN)c1ccc([N+](=O)[O-])c2nonc12` [Example 1, N-(3-aminopropyl)-N′-{3-(methyl-(7-nitrobenzo[1,2,5]oxadiazol-4-yl)-amino)-propyl}-butane-1,4-diamine], the Polyamine transport activity in the assay with BLUE-1 [6] is 58 Arbitrary Unit of fluorescence; with CEM [7] it was 421 Arbitrary Unit of fluorescence; in the assay with U-937 [8] it was 33 Arbitrary Unit of fluorescence; in the assay on BL-41 [9], 164 Arbitrary Unit of fluorescence; with KG-1 [10], 17 Arbitrary Unit of fluorescence. The “Incorporation differential tumoral cells versus healthy cells” value in the assay with A549 cells (flow cytometry, A549 vs MRC-5) is “confirmed by flow cytometry”. For the same compound, in the assay on A549 cells (fluorescence microscope, slide cultured cells, A549 (FIG. 1A) vs MRC-5 healthy lung (FIG. 1B), excitation 488 nm, emission 525 nm), the “Incorporation of the probe in tumoral cells versus cells from healthy tissue” value is “much greater incorporation”.
